biological target: T1, c-kit (Homo sapiens, UniProt P10721); assay: Inhibitory activity against c-kit autophosphorylation (MO7e cells, h-SCF); format: cell-based; details: MO7e cells, 50 ng/ml h-SCF; read-out: c-kit IC50
T1 construct: MO7e (human megakaryocytic leukemia cell line) which had been arrested for 20 hr; endogenous in cells; host or cells: MO7e human megakaryocytic leukemia cell line
Method in brief: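 MO7e human megakaryocytic leukemia cells, arrested 20 hr, treated with compound 1 hr, then stimulated with 50 ng/ml h-SCF for 5 min and lysed. Lysates captured on immobilized anti-phosphotyrosine antibody, detected with anti-c-kit primary and HRP secondary antibody; absorbance at 450 nm.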

T1 sequence (P10721 26-976): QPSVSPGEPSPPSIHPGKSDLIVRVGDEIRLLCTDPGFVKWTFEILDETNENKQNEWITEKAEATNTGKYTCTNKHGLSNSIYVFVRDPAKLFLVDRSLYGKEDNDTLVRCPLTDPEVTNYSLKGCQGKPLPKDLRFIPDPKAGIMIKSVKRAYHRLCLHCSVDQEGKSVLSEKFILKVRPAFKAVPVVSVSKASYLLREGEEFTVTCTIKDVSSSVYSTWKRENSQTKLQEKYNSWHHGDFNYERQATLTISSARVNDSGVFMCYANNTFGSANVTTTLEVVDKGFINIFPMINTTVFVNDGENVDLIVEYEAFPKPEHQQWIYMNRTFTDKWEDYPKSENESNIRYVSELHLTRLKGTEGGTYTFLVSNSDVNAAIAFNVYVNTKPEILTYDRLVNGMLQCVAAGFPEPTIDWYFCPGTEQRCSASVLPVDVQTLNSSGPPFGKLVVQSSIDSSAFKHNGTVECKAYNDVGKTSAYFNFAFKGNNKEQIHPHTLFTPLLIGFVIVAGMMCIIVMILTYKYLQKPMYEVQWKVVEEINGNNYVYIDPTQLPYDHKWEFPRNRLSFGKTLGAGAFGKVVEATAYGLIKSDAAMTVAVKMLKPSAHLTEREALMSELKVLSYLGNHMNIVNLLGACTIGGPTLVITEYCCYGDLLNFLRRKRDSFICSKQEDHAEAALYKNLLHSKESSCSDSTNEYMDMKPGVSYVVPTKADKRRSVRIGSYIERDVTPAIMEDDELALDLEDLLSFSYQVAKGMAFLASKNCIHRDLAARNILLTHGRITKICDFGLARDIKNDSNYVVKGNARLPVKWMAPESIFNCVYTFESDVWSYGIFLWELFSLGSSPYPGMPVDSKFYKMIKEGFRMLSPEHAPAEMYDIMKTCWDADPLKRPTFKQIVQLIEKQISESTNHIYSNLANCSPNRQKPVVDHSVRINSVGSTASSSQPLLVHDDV

Row | IC50 | SMILES
1 | 270 nM | COc1cc(Oc2ccnc3cc(OC)c(OC)cc23)ccc1NC(=O)NCCN1CCCCC1 [Example 681, N-{4-[(6,7-Dimethoxy-4-quinolyl)oxy]-2-methoxyphenyl}-N′-(2-piperidinoethyl)urea]
2 | 302 nM | COc1cc2nccc(Oc3ccc(NC(=S)NC(=O)Cc4ccccc4F)cc3)c2cc1OC [Example 729, N-{4-[(6,7-Dimethoxy-4-quinolyl)oxy]phenyl}-N′-[2-(2-fluorophenyl)acetyl]thiourea]
3 | 173 nM | COc1cc2nccc(Oc3ccc(NC(=O)NNc4ccccc4)c(F)c3)c2cc1OC [Example 612, N-{4-[(6,7-Dimethoxy-4-quinolyl)oxy]-2-fluorophenyl}-N′-(phenylamino)urea]
4 | 451 nM | COc1cc2nccc(Oc3ccc(OCCNc4ccccc4C)cc3)c2cc1OC [Example 783, N-(2-{4-[(6,7-Dimethoxy-4-quinolyl)oxy]phenoxy}ethyl)-N-(2-methylphenyl)amine]
5 | 71 nM | COc1cc2nccc(Oc3ccc(OCCNc4cccc(C)c4)cc3)c2cc1OC [Example 785, N-(2-{4-[(6,7-Dimethoxy-4-quinolyl)oxy]phenoxy}ethyl)-N-(3-methylphenyl)amine]

same assay, conditions: MO7e cells, h-SCF 50 ng/ml; read-out: c-kit IC50

Row | IC50 | SMILES
6 | 71 nM | COc1cc2nccc(Oc3ccc(NC(=O)OCc4cccc(Cl)c4)cc3)c2cc1OC [Example 228, 3-Chlorobenzyl N-{4-[(6,7-dimethoxy-4-quinolyl)oxy]phenyl}carbamate]

same assay, conditions: MO7e cells, h-SCF stimulation; read-out: c-kit IC50

Row | SMILES | IC50
7 | COc1cc2nccc(Oc3ccc(NC(=S)NC(=O)C4CC4)cc3F)c2cc1OC [Example 1056, N-Cyclopropylcarbonyl-N′-{4-[(6,7-dimethoxy-4-quinolyl)oxy]-3-fluorophenyl}thiourea] | 932 nM
8 | COc1cc2nccc(Oc3ccc(SCCOc4ccc(C(C)C)cc4)cc3)c2cc1OC [Example 816, 4-(4-{[2-(4-Isopropylphenoxy)ethyl]sulfanyl}phenoxy)-6,7-dimethoxyquinoline] | 123 nM
9 | COc1ccc(C(=O)NC(=S)Nc2ccc(Oc3ccnc4cc(OC)c(OC)cc34)c(F)c2)cc1OC [Example 1070, N-(3,4-Dimethoxybenzoyl)-N′-{4-[(6,7-dimethoxy-4-quinolyl)oxy]-3-fluorophenyl}thiourea] | 391 nM
10 | COc1cc2nccc(Oc3ccc(NC(=S)NC(=O)CCSC)c(F)c3)c2cc1OC [Example 1067, N-{4-[(6,7-Dimethoxy-4-quinolyl)oxy]-2-fluorophenyl}-N′-[3-(methylsulfanyl)propanoyl]thiourea] | 449 nM
11 | COc1cc2nccc(Oc3ccc(NCCOc4ccccc4OC)cc3)c2cc1OC [Example 853, N-{4-[(6,7-Dimethoxy-4-quinolyl)oxy]phenyl}-N-[2-(2-methoxyphenoxy)ethyl]amine] | 102 nM
12 | COc1cc2ncnc(Oc3ccc(SCCOc4ccccc4F)cc3)c2cc1OC [Example 849, 4-(4-{[2-(2-Fluorophenoxy)ethyl]sulfanyl}phenoxy)-6,7-dimethoxyquinazoline] | 760 nM
13 | COc1cc2ncnc(Oc3ccc(SCCOc4cccc(C)c4)cc3)c2cc1OC [Example 850, 6,7-Dimethoxy-4-(4-{[2-(3-methylphenoxy)ethyl]sulfanyl}phenoxy)quinazoline] | 278 nM
14 | COc1cc2nccc(Oc3ccc(NC(=S)NC(=O)C4CCCCC4)c(F)c3)c2cc1OC [Example 1064, N-Cyclohexylcarbonyl-N′-{4-[(6,7-dimethoxy-4-quinolyl)oxy]-2-fluorophenyl}thiourea] | 279 nM
15 | COc1cc2nccc(Oc3ccc(SCCCCOc4cccc(C)c4)cc3)c2cc1OC [Example 844, 6,7-Dimethoxy-4-(4-{[4-(3-methylphenoxy)butyl]sulfanyl}phenoxy)quinoline] | 450 nM
16 | COc1ccc(C(=O)NC(=S)Nc2ccc(Oc3ccnc4cc(OC)c(OC)cc34)c(F)c2)c(OC)c1 [Example 1113, N-(2,4-Dimethoxybenzoyl)-N′-{4-[(6,7-dimethoxy-4-quinolyl)oxy]-3-fluorophenyl}thiourea] | 785 nM

Other lines, results leading:

Row | IC50 | SMILES
17 | 378 nM | COc1cc2nccc(Oc3ccc(NC(=S)NC(=O)c4ccsc4)cc3)c2cc1OC [Example 1034, N-{4-[(6,7-Dimethoxy-4-quinolyl)oxy]phenyl}-N′-(3-thienylcarbonyl)thiourea]
18 | 290 nM | COc1cc2nccc(Oc3ccc(NC(=S)NC(=O)c4ccc([N+](=O)[O-])cc4)cc3F)c2cc1OC [Example 975, N-{4-[(6,7-Dimethoxy-4-quinolyl)oxy]-3-fluorophenyl}-N′-(4-nitrobenzoyl)thiourea]
19 | 220 nM | COc1cccc(C(=O)NC(=S)Nc2ccc(Oc3ccnc4cc(OC)c(OC)cc34)cc2F)c1 [Example 939, N-{4-[(6,7-Dimethoxy-4-quinolyl)oxy]-2-fluorophenyl}-N′-(3-methoxybenzoyl)thiourea]
20 | 516 nM | COc1cc2nccc(Oc3ccc(NC(=S)NC(=O)c4cccc(F)c4)cc3)c2cc1OC [Example 931, N-{4-[(6,7-Dimethoxy-4-quinolyl)oxy]phenyl}-N′-(3-fluorobenzoyl)thiourea]
21 | 701 nM | COc1ccc(C(=O)NC(=S)Nc2ccc(Oc3ccnc4cc(OC)c(OC)cc34)cc2)cc1 [Example 963, N-{4-[(6,7-Dimethoxy-4-quinolyl)oxy]phenyl}-N′-(4-methoxybenzoyl)thiourea]

same assay, conditions: Mo7e, figure in parentheses in −( ); at 1000 nM

Row | SMILES | inhibition at 1 µM
22 | COc1cc2nccc(Oc3ccc(NC(=S)NC(=O)c4ccccc4)c(C)c3C)c2cc1OC [Example 1084, N-Benzoyl-N′-{4-[(6,7-dimethoxy-4-quinolyl)oxy]-2,3-dimethylphenyl}thiourea] | 30%
23 | COc1cc2nccc(Oc3ccc(NC(=S)NC(=O)c4ccc(Cl)cc4Cl)c(F)c3)c2cc1OC [Example 1011, N-(2,4-Dichlorobenzoyl)-N′-{4-[(6,7-dimethoxy-4-quinolyl)oxy]-2-fluorophenyl}thiourea] | 20%

Second part, the molecule after the results:

Row | inhibition at 1 µM | SMILES
24 | 22% | COc1cc2nccc(Oc3ccc(NC(=S)NC(=O)c4ccc(Cl)cc4)cc3Cl)c2cc1OC [Example 978]
25 | 25% | COc1cc2nccc(Oc3ccc(NC(=S)NC(=O)c4ccc(F)cc4)cc3Cl)c2cc1OC [Example 979, N-{3-Chloro-4-[(6,7-dimethoxy-4-quinolyl)oxy]phenyl}-N′-(4-fluorobenzoyl)thiourea]
26 | 24% | COc1cc2nccc(Oc3ccc(NC(=S)NC(=O)c4ccc(Cl)cc4)c(F)c3)c2cc1OC [Example 965, N-(4-Chlorobenzoyl)-N′-{4-[(6,7-dimethoxy-4-quinolyl)oxy]-2-fluorophenyl}thiourea]
27 | 29% | COc1cc2nccc(Oc3ccc(NC(=S)NC(=O)c4ccsc4)c(F)c3)c2cc1OC [Example 1036, N-{4-[(6,7-Dimethoxy-4-quinolyl)oxy]-2-fluorophenyl}-N′-(3-thienylcarbonyl)thiourea]

same assay, conditions: Mo7e, figure within parentheses in −( ) or >1000( ); at 1000 nM

Row | inhibition at 1 µM | SMILES
28 | 31% | CCN(CC)CCCNC(=S)Nc1ccc(Oc2ncnc3cc(OC)c(OC)cc23)cc1 [Example 531, N-{4-[(6,7-Dimethoxy-4-quinazolinyl)oxy]phenyl}-N′-(3-diethylaminopropyl)thiourea]
29 | 35% | COc1cc2ncnc(Oc3ccc(OCC(=O)N4CCCCC4)cc3)c2cc1OC [Example 806, 2-{4-[(6,7-Dimethoxy-4-quinazolinyl)oxy]phenoxy}-1-piperidino-1-ethanone]

From US7135466B2 (Kirin Beer Kabushiki Kaisha, priority 1999, dated 2006)
